Some test systems named below: BT-549 breast; MDA-MB-435; PC-3 prostate; RPMI-8226 leukemia; SK-MEL-28 melanoma; SN12C renal; SNB-75 CNS; SW-620 colon; UO-31 renal; HL-60(TB) leukemia.
Common to all, as to assay: NCI tumour cell line growth inhibition, 48 h

SMILES strings stand for the structures.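 Compound exposure: 48 hours, 5 concentrations, 96-well plates. The concentration for full growth arrest is given as TGI.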 Some results are limits rather than exact numbers.

With `CC(=O)Nc1ccc(Nc2cc(=O)n(C)c(=O)[nH]2)cc1`, the TGI with BT-549 breast, with MDA-MB-435, with PC-3 prostate, in the experiment on RPMI-8226 leukemia, in the experiment on SK-MEL-28 melanoma and in the experiment on SN12C renal was greater than 100 µM throughout. Also, the TGI with SNB-75 CNS, in the experiment on SW-620 colon and in the experiment on UO-31 renal was greater than 100 µM each time.
As to `CC1=C2C(=O)O[C@@H](c3ccoc3)[C@]2(C)CCC1=O`, the TGI with BT-549 breast, in the experiment on MDA-MB-435, with PC-3 prostate, in the experiment on RPMI-8226 leukemia, in the experiment on SK-MEL-28 melanoma and in the experiment on SN12C renal was greater than 100 µM in each case. Moreover, the TGI with SNB-75 CNS, in the experiment with SW-620 colon and in the experiment with UO-31 renal was greater than 100 µM throughout.
`C[C@H](CCC1=NCCN1)[C@H]1CC[C@H]2[C@@H]3[C@H](O)C[C@@H]4C[C@H](O)CC[C@]4(C)[C@H]3CC[C@]12C`: the TGI in the experiment on BT-549 breast is 24.7 µM; with MDA-MB-435, 26.7 µM; with PC-3 prostate, 21 µM; in the experiment with RPMI-8226 leukemia it was 35.3 µM; in the experiment on SK-MEL-28 melanoma, 27.2 µM; in the experiment with SN12C renal, 37 µM. In addition, the TGI came out at 22.4 µM in the experiment on SNB-75 CNS, 30.1 µM with SW-620 colon and 27.8 µM in the experiment on UO-31 renal.
Regarding `COC(=O)[C@@H]1C=C[C@@H](C#N)n2c(=O)n(-c3ccccc3)c(=O)n21`, the TGI in the experiment with BT-549 breast is greater than 100 µM; in the experiment on MDA-MB-435 it was greater than 100 µM; with RPMI-8226 leukemia, 73.3 µM; in the experiment with SK-MEL-28 melanoma it was greater than 100 µM; in the experiment with SN12C renal, 95 µM; with SNB-75 CNS, 79 µM. The TGI with SW-620 colon and in the experiment on UO-31 renal was greater than 100 µM throughout.
In the case of `CCOc1ccc(N2C(=O)C3c4[nH]c5ccccc5c4C4CCC(C(C)(C)C)CC4C3C2=O)cc1` (stereo not given), the TGI with HL-60(TB) leukemia, with RPMI-8226 leukemia, in the experiment with SK-MEL-28 melanoma, in the experiment with SN12C renal, in the experiment with SNB-75 CNS and in the experiment on SW-620 colon was greater than 100 µM in each case. The compound also registered a TGI with UO-31 renal greater than 100 µM.
As to `CCOc1ccc2ccccc2c1NC1=NCCO1`, the TGI in the experiment on HL-60(TB) leukemia was 49.6 µM; in the experiment with MDA-MB-435, greater than 100 µM; with RPMI-8226 leukemia, 59.4 µM; with SK-MEL-28 melanoma, greater than 100 µM; with SN12C renal, greater than 100 µM; with SNB-75 CNS, greater than 100 µM. Further, the results for the TGI with SW-620 colon and in the experiment on UO-31 renal were greater than 100 µM and 64.7 µM, respectively.
With `CN1CCN(c2nc3ccccc3nc2C(=O)c2ccc(Cl)cc2)CC1`, the TGI with HL-60(TB) leukemia is 98 µM; with MDA-MB-435, greater than 100 µM; in the experiment with PC-3 prostate, greater than 100 µM; in the experiment on RPMI-8226 leukemia, 77.4 µM; with SK-MEL-28 melanoma, greater than 100 µM; in the experiment with SNB-75 CNS it was greater than 100 µM. The TGI in the experiment with SW-620 colon and with UO-31 renal was greater than 100 µM in each case.
`Cc1c(C(=O)CSc2nc3ccc([N+](=O)[O-])cc3[nH]2)c(=O)n(-c2ccccc2)n1C`: the TGI in the experiment on HL-60(TB) leukemia, in the experiment on RPMI-8226 leukemia, with SK-MEL-28 melanoma, in the experiment with SN12C renal, with SNB-75 CNS and in the experiment with SW-620 colon was greater than 100 µM throughout. In addition, the TGI in the experiment on UO-31 renal is greater than 100 µM.
As for `CC12CC3CC/C(=N\O)C(C1)C3(N1CCOCC1)C/C2=N/O` (stereo not given), the TGI in the experiment on HL-60(TB) leukemia is greater than 100 µM; in the experiment with MDA-MB-435, greater than 100 µM; in the experiment on PC-3 prostate it was greater than 100 µM; in the experiment with SK-MEL-28 melanoma, greater than 100 µM; with SN12C renal, greater than 100 µM; in the experiment with SNB-75 CNS, 94.8 µM. For the same compound, the TGI in the experiment on SW-620 colon and in the experiment with UO-31 renal was greater than 100 µM in each case.
For the compound `CC[C@@H]1CN2CCC1C[C@@H]2C(O)c1ccnc2ccc(OCCN3CCN(CCOc4ccc5nccc(C(O)[C@@H]6C[C@@H]7CCN6C[C@@H]7CC)c5c4)CC3)cc12` (stereo not given in full), the TGI is 40.9 µM in the experiment with BT-549 breast; 47.6 µM in the experiment on HL-60(TB) leukemia; 28 µM with MDA-MB-435; 30.3 µM in the experiment on PC-3 prostate; 8.45 µM with RPMI-8226 leukemia; 35.5 µM with SK-MEL-28 melanoma. Further, the results for the TGI in the experiment with SN12C renal and with SW-620 colon were 28.9 µM and 55.6 µM, respectively.
Take `COc1cc(C2C(Cl)C(=O)N2n2cnc3ccccc3c2=O)cc(OC)c1OC` (stereo not given): the TGI with HL-60(TB) leukemia, in the experiment with RPMI-8226 leukemia, in the experiment on SK-MEL-28 melanoma, in the experiment with SN12C renal, in the experiment on SNB-75 CNS and in the experiment with SW-620 colon was greater than 100 µM in each case. This compound displayed a TGI in the experiment on UO-31 renal greater than 100 µM.
Consider `O=C(O)C(CS)NCc1c2ccccc2[n+]([O-])c2ccccc12` (stereo not given), for which the TGI in the experiment on HL-60(TB) leukemia was 57 µM; in the experiment with RPMI-8226 leukemia it was 92.4 µM; in the experiment with SK-MEL-28 melanoma, greater than 100 µM; in the experiment on SN12C renal, greater than 100 µM; in the experiment with SNB-75 CNS it was greater than 100 µM; with SW-620 colon, greater than 100 µM. Also, the TGI in the experiment on UO-31 renal turned out to be 66.3 µM.
`COC(=O)c1ccc2c(c1)CC1(C2)Cc2cc3c(c(C(=O)OC)c2C1)CCCC3` (stereo not given): the TGI with HL-60(TB) leukemia, with MDA-MB-435, in the experiment on PC-3 prostate, in the experiment with RPMI-8226 leukemia, in the experiment with SK-MEL-28 melanoma and in the experiment with SN12C renal was greater than 100 µM in each case. In addition, the TGI in the experiment with SNB-75 CNS, in the experiment on SW-620 colon and in the experiment with UO-31 renal was greater than 100 µM each time.
As to `ClC(Cl)(Cl)C1CCOC1n1nc2ccccc2n1` (stereo not given), the TGI in the experiment on BT-549 breast, in the experiment with HL-60(TB) leukemia, with MDA-MB-435, in the experiment on PC-3 prostate, with SN12C renal and with SNB-75 CNS was greater than 100 µM throughout.
For the compound `CCCCCCCCCCCCCCCC(=O)ON1C(=S)NC(C)(c2ccccc2)C1=S` (stereo not given), the TGI with BT-549 breast, in the experiment with HL-60(TB) leukemia, in the experiment on PC-3 prostate, with RPMI-8226 leukemia, in the experiment with SN12C renal and in the experiment with SNB-75 CNS was greater than 100 µM each time. Also, in the experiment with UO-31 renal, the TGI is greater than 100 µM.
`O=C(O)CCC(NC(=O)c1ccc(Nc2nc3ccccc3nc2C(=O)O)cc1)C(=O)O` (stereo not given): the TGI in the experiment with BT-549 breast, in the experiment on HL-60(TB) leukemia, with MDA-MB-435, in the experiment on RPMI-8226 leukemia, with SK-MEL-28 melanoma and in the experiment with SN12C renal was greater than 100 µM throughout. In addition, the TGI in the experiment with SNB-75 CNS and with UO-31 renal was greater than 100 µM throughout.

These data come from PubChem BioAssay (NCI).
